In ChEMBL document CHEMBL5137052, “Identification of dihydroquinolizinone derivatives with cyclic ether moieties as new anti-HBV agents” (Eur J Med Chem, 2022):

Experiments:
[1] = Cytotoxicity against human HepG2.2.15 cells assessed as reduction in cell viability incubated for 6 days by CCK-8 assay; assay type: toxicity, cell-based, HepG2 2.2.15; conditions: for CC50 at 144 h: time 6 day
Hepatitis B virus [2] = experiment: Antiviral activity against HBV infected in human HepG2.2.15 cells assessed as reduction in intracellular core HBV DNA level incubated for 6 days by qPCR analysis; assay type: functional, organism-based; conditions: HepG2.2.15, 144 h
Hepatitis B virus [3] = experiment: Antiviral activity against HBV infected in human HepG2.2.15 cells assessed as reduction in HBsAg level in cellular supernatant by luminescence based microplate reader analysis; assay type: functional, organism-based
Hepatitis B virus [4] = experiment: Antiviral activity against HBV infected in human HepG2.2.15 cells assessed as reduction in HBeAg level in cellular supernatant by luminescence based microplate reader analysis; assay type: functional, organism-based
[5] = MRT (0 to t) in BALB/c mouse at 10 mg/kg, po measured up to 24 hrs by HPLC analysis; assay type: ADME, organism-based; conditions: in vivo
[6] = Tmax in BALB/c mouse at 10 mg/kg, po measured up to 24 hrs by HPLC analysis; assay type: ADME, organism-based; conditions: in vivo
[7] = Cmax in BALB/c mouse at 10 mg/kg, po measured up to 24 hrs by HPLC analysis; assay type: ADME, organism-based; design: dose 10 mg/kg, time < 24 hrs, route po; conditions: in vivo
[8] = AUC (0 to t) in BALB/c mouse at 10 mg/kg, po measured up to 24 hrs by HPLC analysis; assay type: ADME, organism-based; design: dose 10 mg/kg, time < 24 hrs, route po; conditions: in vivo
[9] = Elimination half life in BALB/c mouse at 10 mg/kg, po measured up to 24 hrs by HPLC analysis; assay type: ADME, organism-based; conditions: in vivo, read-out: beta t1/2 (converted)
[10] = Neurotoxicity against NGF induced rat PC-12 cells assessed as morphological changes by measuring appearance of round cells with disappearance of neurites at 10 uM incubated for 48 hrs by phase contrast microscopic analysis; assay type: toxicity, cell-based; conditions: pc-12, 48 h
[11] = Neurotoxicity against NGF induced rat PC-12 cells assessed as morphological changes by measuring appearance of shrunken cells with disappearance of neurites at 10 uM incubated for 48 hrs by phase contrast microscopic analysis; assay type: toxicity, cell-based; conditions: pc-12, 48 h
[12] = Neurotoxicity against NGF induced rat PC-12 cells assessed as morphological changes by measuring appearance of clear neurites at 10 uM incubated for 48 hrs by phase contrast microscopic analysis; assay type: toxicity, cell-based; conditions: pc-12, 48 h
[13] = Neurotoxicity against NGF induced rat PC-12 cells assessed as morphological changes by measuring appearance of shrunken cells at 10 uM incubated for 48 hrs by phase contrast microscopic analysis; assay type: toxicity, cell-based; conditions: pc-12, 48 h

Compound | IC50 (Hepatitis B virus [2]) | IC50 (Hepatitis B virus [3]) | IC50 (Hepatitis B virus [4]) | EC50 (Hepatitis B virus [2]) | EC50 (Hepatitis B virus [3]) | EC50 (Hepatitis B virus [4]) | CC50 at 144 h [1] | further results
COCCCOc1cc2c(cc1OC)-c1cc(=O)c(C(=O)O)cn1C(C(C)C)C2 (racemic) | 86.3 nM | 5.1 nM | 91.2 nM | 1 nM | 1 nM | 18.2 nM | > 50000 nM | MRT last at 24 h [5]: 67.8 min; Tmax [6]: 11.4 min; Cmax [7]: 11600 nM; AUC(0-t) at 24 h [8]: 17.2 µM·h; half-life [9]: 51 min; Activity [10]: Toxic; Activity [11]: Toxic
COc1cc2c(cc1OC[C@@H]1CCCO1)C[C@@H](C(C)C)n1cc(C(=O)O)c(=O)cc1-2 |  |  |  | 0.6 nM | 1.6 nM | 4.6 nM |  | Activity [12]: Non-Toxic
COc1cc2c(cc1OCC1COc3c(Cl)cccc3O1)CC(C(C)C)n1cc(C(=O)O)c(=O)cc1-2 (stereo not drawn) | 4.2 nM | 1.2 nM | 21 nM |  |  |  | 11600 nM | 
COc1cc2c(cc1OC[C@@H]1COc3cccnc3O1)C[C@H](C(C)C)n1cc(C(=O)O)c(=O)cc1-2 |  |  |  | 882 nM | 882 nM | 3190 nM |  | 
COc1cc2c(cc1OCC1COc3ccc([N+](=O)[O-])cc3O1)CC(C(C)C)n1cc(C(=O)O)c(=O)cc1-2 (stereo not drawn) | 16.5 nM | 4.6 nM | 18.2 nM |  |  |  | 50000 nM | 
COc1cc2c(cc1OCC1COc3c(F)cccc3O1)CC(C(C)C)n1cc(C(=O)O)c(=O)cc1-2 (stereo not drawn) | 29 nM | 1.5 nM | 20.6 nM |  |  |  | 16700 nM | 
COc1cc2c(cc1OCC1COc3ccccc3O1)CC(C(C)C)n1cc(C(=O)O)c(=O)cc1-2 (stereo not drawn) | 12.1 nM | 1.5 nM | 2 nM |  |  |  |  | IC50 at 6 days [1]: 21500 nM
COc1cc2c(cc1OCCC1COc3ccccc3O1)CC(C(C)C)n1cc(C(=O)O)c(=O)cc1-2 (stereo not drawn) | 1.2 nM | 18.4 nM | 16.4 nM |  |  |  | 11600 nM | 
COc1cc2c(cc1OCC1COc3ccc(Br)cc3O1)CC(C(C)C)n1cc(C(=O)O)c(=O)cc1-2 (stereo not drawn) | 13.4 nM | 24.5 nM | 127 nM |  |  |  | 11600 nM | 
COc1cc2c(cc1OCC1COc3cccc(F)c3O1)CC(C(C)C)n1cc(C(=O)O)c(=O)cc1-2 (stereo not drawn) | 37.2 nM | 1.6 nM | 57.3 nM |  |  |  | 21500 nM | 
COc1cc2c(cc1OCC1COc3cc(Br)ccc3O1)CC(C(C)C)n1cc(C(=O)O)c(=O)cc1-2 (stereo not drawn) | 36.9 nM | 34.3 nM | > 1000 nM |  |  |  | 34700 nM | 
COCCCOc1cc2c(cc1OC)-c1cc(=O)c(C(=O)O)cn1[C@@H](C(C)C)C2 |  |  |  | 75.8 nM | 928 nM | 3270 nM |  | 
COc1cc2c(cc1OCC1COc3cc(Cl)ccc3O1)CC(C(C)C)n1cc(C(=O)O)c(=O)cc1-2 (stereo not drawn) | 9.1 nM | 3.7 nM | 39.5 nM |  |  |  | 10600 nM | 
COc1cc2c(cc1OC[C@H]1CCCO1)C[C@@H](C(C)C)n1cc(C(=O)O)c(=O)cc1-2 |  |  |  | 2.1 nM | 5.1 nM | 220 nM |  | Activity [13]: Toxic
COc1cc2c(cc1OCC1COc3cc(F)ccc3O1)CC(C(C)C)n1cc(C(=O)O)c(=O)cc1-2 (stereo not drawn) | 15.5 nM | 18.4 nM | 22.7 nM |  |  |  | 11600 nM | 
COc1cc2c(cc1OC(C)c1ccc3c(c1)OCO3)CC(C(C)C)n1cc(C(=O)O)c(=O)cc1-2 (stereo not drawn) | 181 nM | 1.2 nM | > 1000 nM |  |  |  | > 50000 nM | 

Now from value to compound, other results behind:

IC50 (Hepatitis B virus [2]) | IC50 (Hepatitis B virus [3]) | IC50 (Hepatitis B virus [4]) | EC50 (Hepatitis B virus [2]) | EC50 (Hepatitis B virus [3]) | EC50 (Hepatitis B virus [4]) | Compound | CC50 at 144 h [1] | further results
0.6 nM | 1.1 nM | 56.2 nM |  |  |  | COc1cc2c(cc1OCC1CCOC1)CC(C(C)C)n1cc(C(=O)O)c(=O)cc1-2 (stereo not drawn) | > 50000 nM | 
18.2 nM | 5.1 nM | > 1000 nM |  |  |  | COc1cc2c(cc1OCC1COCCO1)CC(C(C)C)n1cc(C(=O)O)c(=O)cc1-2 (stereo not drawn) | > 50000 nM | 
 |  |  | 3080 nM | 3080 nM | 12800 nM | COc1cc2c(cc1OC[C@H]1COc3cccnc3O1)C[C@H](C(C)C)n1cc(C(=O)O)c(=O)cc1-2 |  | 
4.3 nM | 3.4 nM | 53.2 nM |  |  |  | COc1cc2c(cc1OCC1COc3cccc(Cl)c3O1)CC(C(C)C)n1cc(C(=O)O)c(=O)cc1-2 (stereo not drawn) | 11600 nM | 
8.1 nM | 1.7 nM | > 1000 nM |  |  |  | COc1ccc2c(c1)OC(COc1cc3c(cc1OC)-c1cc(=O)c(C(=O)O)cn1C(C(C)C)C3)CO2 (stereo not drawn) | 31900 nM | 
 |  |  | 124 nM | 239 nM | 2030 nM | COc1cc2c(cc1OCc1ccc3c(c1)OCO3)C[C@H](C(C)C)n1cc(C(=O)O)c(=O)cc1-2 |  | 
 |  |  | 37.5 nM | 3.5 nM | 3380 nM | COc1cc2c(cc1OC[C@H]1CCCO1)C[C@H](C(C)C)n1cc(C(=O)O)c(=O)cc1-2 |  | 
5.7 nM | 7.7 nM | 86.5 nM |  |  |  | COc1cc2c(cc1OCC1COc3ccc(Cl)cc3O1)CC(C(C)C)n1cc(C(=O)O)c(=O)cc1-2 (stereo not drawn) | 11600 nM | 
52 nM | 403 nM | > 1000 nM |  |  |  | COc1ccc2c(c1)OCC(COc1cc3c(cc1OC)-c1cc(=O)c(C(=O)O)cn1C(C(C)C)C3)O2 (stereo not drawn) | > 50000 nM | 
 |  |  | 1.4 nM | 1.4 nM | 104 nM | COc1cc2c(cc1OC[C@H]1COc3cccnc3O1)C[C@@H](C(C)C)n1cc(C(=O)O)c(=O)cc1-2 |  | Activity [13]: Toxic
 |  |  | 119 nM | 1.2 nM | 2010 nM | COc1cc2c(cc1OC[C@@H]1CCCO1)C[C@H](C(C)C)n1cc(C(=O)O)c(=O)cc1-2 |  | 
 |  |  | 86.3 nM | 6.3 nM | 70 nM | COc1cc2c(cc1OC[C@@H]1COc3cccnc3O1)C[C@@H](C(C)C)n1cc(C(=O)O)c(=O)cc1-2 |  | Activity [13]: Toxic
 |  |  | 1.9 nM | 0.8 nM | 191 nM | COc1cc2c(cc1OCc1ccc3c(c1)OCO3)C[C@@H](C(C)C)n1cc(C(=O)O)c(=O)cc1-2 |  | Activity [10]: Toxic; Activity [11]: Toxic
0.5 nM | 1.9 nM | 94.9 nM |  |  |  | COc1cc2c(cc1OCC1COc3cccnc3O1)CC(C(C)C)n1cc(C(=O)O)c(=O)cc1-2 (stereo not drawn) | > 50000 nM | MRT last at 24 h [5]: 52.8 min; Tmax [6]: 30 min; Cmax [7]: 2910 nM; AUC(0-t) at 24 h [8]: 2.38 µM·h; half-life [9]: 43.2 min
13.4 nM | 0.2 nM | 10.2 nM |  |  |  | COc1cc2c(cc1OCc1ccc3c(c1)OCCO3)CC(C(C)C)n1cc(C(=O)O)c(=O)cc1-2 (stereo not drawn) | 34700 nM | 
11.2 nM | 1.1 nM | 158 nM |  |  |  | COc1ccc(COc2cc3c(cc2OC)-c2cc(=O)c(C(=O)O)cn2C(C(C)C)C3)cc1OC (stereo not drawn) | > 50000 nM | 
5 nM | 1.6 nM | 66.7 nM |  |  |  | COc1cc2c(cc1OCc1ccc3c(c1)OCO3)CC(C(C)C)n1cc(C(=O)O)c(=O)cc1-2 (stereo not drawn) | > 50000 nM | MRT last at 24 h [5]: 101 min; Tmax [6]: 49.8 min; Cmax [7]: 2180 nM; AUC(0-t) at 24 h [8]: 4.46 µM·h; half-life [9]: 82.2 min
5.7 nM | 0.2 nM | 15.4 nM |  |  |  | COc1cc2c(cc1OCC1COc3ccc(F)cc3O1)CC(C(C)C)n1cc(C(=O)O)c(=O)cc1-2 (stereo not drawn) | 34700 nM | MRT last at 24 h [5]: 112 min; Tmax [6]: 60 min; Cmax [7]: 1440 nM; AUC(0-t) at 24 h [8]: 3.38 µM·h; half-life [9]: 101 min
1.6 nM | 509 nM | 27 nM |  |  |  | COc1cc2c(cc1OCC1CCCO1)CC(C(C)C)n1cc(C(=O)O)c(=O)cc1-2 (stereo not drawn) | > 50000 nM | MRT last at 24 h [5]: 65.4 min; Tmax [6]: 19.8 min; Cmax [7]: 8840 nM; AUC(0-t) at 24 h [8]: 10.4 µM·h; half-life [9]: 39.6 min
10.1 nM | 3.5 nM | 179 nM |  |  |  | COc1cc2c(cc1OCC1COc3cc(C)ccc3O1)CC(C(C)C)n1cc(C(=O)O)c(=O)cc1-2 (stereo not drawn) | 11600 nM | 
17.9 nM | 7.5 nM | 328 nM |  |  |  | COc1cc2c(cc1OCC1COc3ccc(C)cc3O1)CC(C(C)C)n1cc(C(=O)O)c(=O)cc1-2 (stereo not drawn) | 34700 nM | 
